Assay results published in ChEMBL document CHEMBL1201862, “PubChem BioAssay data set” (2004).
The source made the active and inactive calls.

How the values were obtained:
[1] = growth suppression of beta-catenin-knockout colon cells, dose response, cell-based, HCT116, human colon tumor (AID 1045); type: functional;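 note: HCT116 colon tumor cells with beta catenin knocked out; cells exposed to compound for 60 hours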
[2] = growth suppression of PTEN-null colon cells, dose response, cell-based, HCT116 PTEN knockout (AID 1047); type: functional;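 note: HCT116 colon tumor cells with PTEN knocked out; cells exposed to compound for 60 hours before readout; potency for loss of cell viability measured by luminescence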
[3] = molecular target: T1, Fructose-bisphosphate aldolase (Mycobacterium tuberculosis, UniProt P9WQA3); experiment: Fluorescence-based biochemical high throughput dose response assay for inhibitors of the fructose-bisphosphate aldolase (FBA) of M. tuberculosis.; type: functional
T1 sequence (P9WQA3 whole entry): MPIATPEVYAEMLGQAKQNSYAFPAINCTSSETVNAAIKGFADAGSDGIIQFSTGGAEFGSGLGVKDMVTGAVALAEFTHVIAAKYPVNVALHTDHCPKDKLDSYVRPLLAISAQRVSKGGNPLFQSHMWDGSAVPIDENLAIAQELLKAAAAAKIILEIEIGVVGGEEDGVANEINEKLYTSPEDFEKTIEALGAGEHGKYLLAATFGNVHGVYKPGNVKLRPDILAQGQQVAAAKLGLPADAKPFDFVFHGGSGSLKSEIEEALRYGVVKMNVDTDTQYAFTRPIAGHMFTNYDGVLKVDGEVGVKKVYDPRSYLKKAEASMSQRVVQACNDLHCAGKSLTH

cells [4] = experiment: cells
Major prion protein = Major prion protein (Homo sapiens, UniProt P04156); type: functional, cell-based
cells [5] = type: functional, cell-based
cells [6] = type: functional, cell-based; remark: listed apart in the source
[7] = molecular target: T2, Zinc finger protein mex-5 (Caenorhabditis elegans, UniProt Q9XUB2); experiment: MEX-5/TCR-2 RNA interaction inhibitors, dose response, biochemical, C. elegans, fluorescence polarization (AID 1960)
T2 sequence (Q9XUB2 whole entry): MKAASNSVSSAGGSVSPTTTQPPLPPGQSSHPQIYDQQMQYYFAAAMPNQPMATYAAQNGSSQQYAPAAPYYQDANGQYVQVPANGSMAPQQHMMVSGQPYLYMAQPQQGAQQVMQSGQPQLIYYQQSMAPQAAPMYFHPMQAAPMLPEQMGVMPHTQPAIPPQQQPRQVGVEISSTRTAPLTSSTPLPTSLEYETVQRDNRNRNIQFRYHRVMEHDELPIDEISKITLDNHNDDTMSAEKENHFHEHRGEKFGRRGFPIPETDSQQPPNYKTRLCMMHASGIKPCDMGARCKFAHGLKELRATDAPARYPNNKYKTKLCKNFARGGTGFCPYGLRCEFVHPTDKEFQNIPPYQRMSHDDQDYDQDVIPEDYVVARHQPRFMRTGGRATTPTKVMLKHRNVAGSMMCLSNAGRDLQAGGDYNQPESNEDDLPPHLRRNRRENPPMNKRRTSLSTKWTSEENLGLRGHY

[8] = molecular target: T3, RNA-binding protein pos-1 (Caenorhabditis elegans, UniProt G5EF15); experiment: inhibitors of POS-1/mex-3 RNA binding, dose response, biochemical, fluorescence polarization (AID 1964);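 note: purified POS-1 fused to maltose binding protein made in E. coli; potency of compounds blocking POS-1 binding to fluorescent RNA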
T3 sequence (G5EF15 whole entry): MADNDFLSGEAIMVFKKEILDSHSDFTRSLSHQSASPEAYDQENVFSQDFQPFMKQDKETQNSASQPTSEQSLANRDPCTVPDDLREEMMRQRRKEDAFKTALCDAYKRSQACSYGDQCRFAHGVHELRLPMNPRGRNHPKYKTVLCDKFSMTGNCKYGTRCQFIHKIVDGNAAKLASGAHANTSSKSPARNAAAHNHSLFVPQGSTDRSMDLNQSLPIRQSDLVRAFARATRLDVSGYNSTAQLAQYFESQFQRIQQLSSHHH

[9] = ADAM10 inhibitors, peptide cleavage, dose response, biochemical, QFRET (AID 743254);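 note: ADAM10 enzyme with the DM2 quenched FRET peptide as substrate; EDANS fluorescence gain as the protease cuts the substrate; inhibitor potency against ADAM10 proteolytic activity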
[10] = molecular target: Disintegrin and metalloproteinase domain-containing protein 17 (Homo sapiens, UniProt P78536); experiment: ADAM17 protease inhibitors, dose response, counter-screen for ADAM10 exosite inhibitor project, biochemical, quenched FRET substrate (AID 743253)
[11] = molecular target: Glyceraldehyde-3-phosphate dehydrogenase (Homo sapiens, UniProt P04406)
[12] = molecular target: T4, Alkaline phosphatase, tissue-nonspecific isozyme (Homo sapiens, UniProt P05186); experiment: human TNAP enzyme inhibitors, SAR follow-up, biochemical, luminescent, dose response (AID 1056)
T4 sequence (P05186 whole entry): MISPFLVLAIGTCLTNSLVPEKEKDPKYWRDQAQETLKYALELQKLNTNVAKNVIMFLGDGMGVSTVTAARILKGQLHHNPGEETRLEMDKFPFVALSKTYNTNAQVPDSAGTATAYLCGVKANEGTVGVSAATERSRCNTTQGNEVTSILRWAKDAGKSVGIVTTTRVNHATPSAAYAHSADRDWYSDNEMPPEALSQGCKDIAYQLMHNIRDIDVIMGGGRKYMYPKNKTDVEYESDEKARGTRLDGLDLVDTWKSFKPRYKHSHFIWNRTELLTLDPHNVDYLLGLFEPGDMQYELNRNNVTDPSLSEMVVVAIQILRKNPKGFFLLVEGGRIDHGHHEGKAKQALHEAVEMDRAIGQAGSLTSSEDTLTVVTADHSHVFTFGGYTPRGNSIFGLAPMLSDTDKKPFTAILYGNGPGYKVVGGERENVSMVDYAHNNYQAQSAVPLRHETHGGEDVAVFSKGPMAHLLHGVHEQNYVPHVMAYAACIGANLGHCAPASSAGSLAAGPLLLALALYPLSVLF

[13] = molecular target: T5, Oxysterols receptor LXR-beta (Homo sapiens, UniProt P55055); type: functional, cell-based;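 note: agonist activity at LXR measured by a cell-based luminescence readout across a dose range, run as a counterscreen for daf-12 agonists; HEK293 cells with Gal4-LXR fusion and GAL4-driven luciferase reporter; potency for activation of Gal4-LXR reporter so compounds are agonists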
T5 sequence (P55055 whole entry): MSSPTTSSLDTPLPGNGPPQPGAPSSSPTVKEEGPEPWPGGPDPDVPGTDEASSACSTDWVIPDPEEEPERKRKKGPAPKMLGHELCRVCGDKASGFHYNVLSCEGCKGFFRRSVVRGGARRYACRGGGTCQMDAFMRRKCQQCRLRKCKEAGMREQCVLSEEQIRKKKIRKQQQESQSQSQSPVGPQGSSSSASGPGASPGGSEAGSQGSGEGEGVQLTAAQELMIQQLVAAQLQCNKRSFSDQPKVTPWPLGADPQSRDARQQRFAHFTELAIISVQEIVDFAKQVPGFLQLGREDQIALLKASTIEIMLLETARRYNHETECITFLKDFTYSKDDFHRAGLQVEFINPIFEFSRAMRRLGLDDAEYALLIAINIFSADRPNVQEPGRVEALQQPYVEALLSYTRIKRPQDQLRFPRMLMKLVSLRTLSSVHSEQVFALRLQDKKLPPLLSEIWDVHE

[14] = Luminescence Cell-Based Dose Retest to Confirm Inhibitors of Cancer Stem Cells. [Related pubchem assays (depositor defined):AID2717, AID2721]; type: functional; details: Homo sapiens
[15] = non-specific cell cytotoxicity, dose response, cytotoxicity control for PAX8 inhibitor project, plate reader, dry powder samples (AID 743021); type: functional, cell-based
Paired box protein Pax-8 = Paired box protein Pax-8 (Homo sapiens, UniProt Q06710); experiment: inhibitors of PAX8-driven TPO luciferase reporter, dose response, RMG-I cells, cherry-pick (AID 687027); type: functional, cell-based;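 note: luciferase reporter driven by Pax8 target thyroperoxidase promoter measured by SteadyGlo luminescence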
H4 = experiment: Luminescence Cell-Based Dose Response HTS to Identify Activators of 5'UTR Stem-Loop Driven Prion Protein mRNA Translation in H4 Neuroglioblastoma Cells. [Related pubchem assays: 1829 (Project Summary), 1814 (Primary HTS)]; type: functional; details: Homo sapiens
[16] = molecular target: T6, Nuclear receptor subfamily 0 group B member 1 (Homo sapiens, UniProt P51843); type: functional, cell-based;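 note: HEK293T cells transfected with SF-1 and DAX-1 plus StAR promoter luciferase reporter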
T6 sequence (P51843 whole entry): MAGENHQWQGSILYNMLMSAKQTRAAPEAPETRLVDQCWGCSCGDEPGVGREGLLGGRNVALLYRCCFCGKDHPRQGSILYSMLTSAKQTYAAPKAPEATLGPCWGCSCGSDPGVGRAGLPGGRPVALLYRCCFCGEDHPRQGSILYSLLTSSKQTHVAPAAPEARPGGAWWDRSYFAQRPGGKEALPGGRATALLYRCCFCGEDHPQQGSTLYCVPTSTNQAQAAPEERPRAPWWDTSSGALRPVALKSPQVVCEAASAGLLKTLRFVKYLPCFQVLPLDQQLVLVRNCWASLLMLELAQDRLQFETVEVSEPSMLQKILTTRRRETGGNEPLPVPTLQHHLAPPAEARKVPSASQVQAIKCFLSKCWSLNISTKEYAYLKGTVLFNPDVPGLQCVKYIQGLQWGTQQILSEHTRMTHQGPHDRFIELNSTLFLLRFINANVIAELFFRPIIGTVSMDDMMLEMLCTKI

cells [17] = type: functional, cell-based; remark: listed apart in the source

In the case of `CCOC(=O)c1oc2cccc(OCC(O)CNC(C)C)c2c1C` (configuration not stated), the EC50 [1] is reported as 47.7 µM (active), the EC50 [2] is reported as 45.6 µM (active) and the IC50 [3] is reported as 0.843 µM (active).

For `CCOC(=O)CSc1nc(CC)nc2ccccc12`, the IC50 (cells [4]) was > 138 µM (inactive) and the IC50 (Major prion protein) was 1.08 µM (active).

In the case of `Cc1ccc(-c2nc3ccccc3nc2NN)cc1`, the EC50 (cells [5]) is reported as 7.52 µM (active), the EC50 (cells [6]) is reported as > 350 µM (not active) and the IC50 [3] is reported as > 10 µM (inactive).

In the case of `Cc1nnc(S)c2nn(-c3cccc(Cl)c3)c(C)c12`, the EC50 [7] is reported as 153 µM (active), the IC50 (cells [4]) is reported as > 138 µM (inactive) and the EC50 [8] is reported as 137 µM (active). The IC50 (Major prion protein) was 5.53 µM (active).

With `COc1ccc(-c2c[nH]nc2-c2ccc(OCc3ccccc3)cc2O)cc1OC` the IC50 [9] was > 69.5 µM (inactive) and the IC50 [10] was > 69.5 µM (inactive).

With `COc1ccc(-c2nnc3oc(O)cc(C)c2-3)cc1` the IC50 [11] was > 100 µM (not active), the IC50 [12] was 1.06 µM (active) and the IC50 [3] was 1.88 µM (active).

For `Cc1ccc(-c2cn3cccnc3n2)cc1`, the EC50 [13] was > 67.6 µM (inactive).

With `Cc1cccc(OCCNC(=O)c2cccc(Oc3ccc(C(F)(F)F)cc3[N+](=O)[O-])c2)c1` the IC50 [9] was 27.5 µM (inactive), the AC50 [14] was 23.5 µM (active) and the IC50 [10] was > 69.5 µM (inactive).

With `CC(=O)CSc1nc(O)c(C#N)c(-c2cccs2)n1` the IC50 (cells [4]) was > 138 µM (inactive).

In the case of `Cc1ccc(S(=O)(=O)Nc2ccc3c(c2)CC(=O)N([C@@H](C)CO)C[C@H](C)[C@@H](CN(C)C(=O)Nc2ccc(C(F)(F)F)cc2)O3)cc1`, the AC50 [15] is reported as 43.1 µM (active) and the AC50 (Paired box protein Pax-8) is reported as 30.4 µM (active).

With `O=C(/N=c1\nc2ccccn2s1)c1ccccc1` the EC50 (H4) was 5.73 µM (active), the IC50 [16] was > 67.5 µM (inactive) and the IC50 (cells [17]) was > 67.5 µM (inactive).
